Test results as given in ChEMBL document CHEMBL1156651, “Viridamides A and B, lipodepsipeptides with antiprotozoal activity from the marine cyanobacterium Oscillatoria nigro-viridis” (J Nat Prod, 2008).
Where a SMILES comes first, the peptide text is derived from it. [ ]: non-standard residue; d: D form. The star is where a group is joined. Hmpa(2S,3S) = CC[C@H](C)[C@H](O)C(=O)O; NMeI = CC[C@H](C)[C@H](NC)C(=O)O; NMeV = CN[C@H](C(=O)O)C(C)C; X1 = C#CCCCC(CCCC(=O)*)OC

Experiments:
Format in all cases: functional, organism-based
Trypanosoma cruzi = assay: Antitrypanosomal activity against Trypanosoma cruzi Tulahuen C4 in vero cells assessed as intracellular growth inhibition of trypomastigote by beta-galactosidase reporter gene assay
Leishmania mexicana = assay: Antileishmanial activity against Leishmania mexicana promastigotes by DNA fluorescence method
Plasmodium falciparum = assay: Antimalarial activity against Plasmodium falciparum

| IC50 (Trypanosoma cruzi) [µM] | IC50 (Leishmania mexicana) [µM] | IC50 (Plasmodium falciparum) [µM] | SMILES |
| --- | --- | --- | --- |
| 10 | – | – | CC1CS(=O)(=O)CCN1/N=C/c1ccc([N+](=O)[O-])o1 (stereo not given) [NIFURTIMOX] |
| 1.1 | 1.5 | 5.8 | C#CCCCC(CCCC(=O)N(C)[C@H](C(=O)N[C@H](C(=O)N[C@H](C(=O)N(C)[C@H](C(=O)O[C@H](C(=O)N1CCC[C@H]1C(=O)OC)[C@@H](C)CC)C(C)C)C(C)C)C(C)C)[C@@H](C)CC)OC (stereo partly drawn) [VIRIDAMIDE A] (X1-[NMeI]VV[NMeV][Hmpa(2S,3S)]P-OMe) |
| – | 0.1 | – | C[C@@H]1[C@H](O)[C@@H](C)/C=C/C=C/C=C/C=C/C=C/C=C/C=C/[C@H](O[C@@H]2O[C@H](C)[C@@H](O)[C@H](N)[C@@H]2O)C[C@@H]2O[C@](O)(C[C@@H](O)C[C@@H](O)[C@H](O)CC[C@@H](O)C[C@@H](O)CC(=O)O[C@H]1C)C[C@H](O)[C@H]2C(=O)O [AMPHOTERICIN B] |
